# Experiment: Thermal stability by thermogravimetric analysis (TGA)
# Type: physicochemical
# Conditions: at relevant processing temperatures (<250° C.)
# Protocol: Prior to thermokinetic processing, thermal stability of BI 667 was assessed using thermogravimetric analysis (TGA). BI 667 was considered stable (<1% mass loss on TGA) at relevant processing temperatures (<250° C.). […] (data not shown). […] Thus, a max processing temperature (and therefore ejection set point temperature) of the mixture was set at 160° C. TGA was performed on a TGA/DSC 1 (Mettler Toledo, Schwerzenbach, Switzerland). The temperature ramp utilized in this study was performed from 25 to 300° C. at a rate of 5° C./min with a nitrogen purge of 50 mL/min. Data were analyzed using STARE System.
smiles,measurement,value
CS(=O)(=O)c1cc(C2(NC(=O)c3cncc4c3cnn4-c3ccc(F)cc3)CC2)ccn1 [BI 667],mass loss on TGA,< 1%
